Measured values reported in patent US12360118B2, “Method for protein kinase activity ranking” (KINOMICA LIMITED, priority 2015, dated 2025).

Experiments:
[1] = system: eight haematological cell-lines; assay: Viability of haematological cell-lines (Guava ViaCount) and sensitivity coefficient (SC); format: cell-based; settings: nine kinase inhibitors of Table 1
Protocol: B-cell lymphoma and leukemia cell-lines were routinely maintained in RPMI-1640 medium supplemented with 10% fetal-bovine serum (FBS) and 100 U·mL^−1 penicillin/streptomycin (P/S). Cells were maintained at a confluency of 0.5-2.0×10^6 cells·mL^−1. Stromal cells were grown in IMDM medium (supplemented with 10% FBS and 100 U·mL^−1 P/S) and maintained at a confluency of 2.0-30.0×10^6 cells in 175 cm^2 flasks. MS-5 conditioned IMDM medium was generated by growing stromal cells in IMDM for 3 days. All cells were kept at 37° C. in a humidified atmosphere at 5% CO2.
Cell-lines were seeded in 96 well plates (10,000 cells-well-), left overnight and treated with vehicle, or 1 to 1000 nM of AZD-5438 (CDK2i;), GF-109203X (PKCαi; Tocris), PF-3758309 (PAKi; Calbiochem), Trametinib (MEKi; Selleckchem), MK-2206 (AKTi; Selleckchem), KU-0063794 (mTORi; Chemdea) or TAK 715 (P38αi;). Cells were also treated with 0.01 to 10 μM of PKC-412 (PKC/Flt3i; Tocris) or 0.1 to 10 μM of TBB (CK2i; Sigma). After 72 h, cells were stained with Guava ViaCount reagent (Millipore) as indicated by the manufacturer and cell number and viability was measured using a Guava EasyCyte Plus instrument. […] After 72 h, cells were stained with Guava ViaCount reagent and cell number and viability was measured. […] Flow cytometry data were analyzed using CytoSoft (v2.5.7). IC50 values were calculated using Graphpad PRISM (v5.03). […]

primary AML cells = assay: Viability of primary AML cells (Guava ViaCount), IC50 and SC; format: cell-based, human; settings: 36 primary AML cases; threshold 50% reduction in viability at 1 μM
Protocol: All patients gave informed consent for the storage of their blood cells for research purposes. Each procedure was conducted in accordance with the East London and City Research Ethics Committee, as previously described (Miraki-Moud, F. et al. Blood 125, 4060-4068 (2015)). All studies comply with the rules of the Review Board and by the revised Helsinki protocol. Peripheral blood was extracted from AML patients at St Bartholomew's Hospital and mononuclear cells, isolated using Ficoll gradient followed by red cell lysis, were stored in liquid N2. Primary AML blasts were thawed following standard procedures: briefly, vials were defrosted at 37 C and exposed to 500 μg of DNAse (Sigma) for 5 minutes. […] Cell number and viability were determined by trypan blue staining using a Vi-CELL XR cell viability analyser (Beckman Coulter).
Cell-lines were seeded in 96 well plates (10,000 cells-well-), left overnight and treated with vehicle, or 1 to 1000 nM of AZD-5438 (CDK2i;), GF-109203X (PKCαi; Tocris), PF-3758309 (PAKi; Calbiochem), Trametinib (MEKi; Selleckchem), MK-2206 (AKTi; Selleckchem), KU-0063794 (mTORi; Chemdea) or TAK 715 (P38αi;). […] After 72 h, cells were stained with Guava ViaCount reagent (Millipore) as indicated by the manufacturer and cell number and viability was measured using a Guava EasyCyte Plus instrument. […] Flow cytometry data were analyzed using CytoSoft (v2.5.7). […]

CDK2 = CDK2 (Homo sapiens, UniProt P24941); settings: off-target of the PKCα inhibitor; cited from earlier work
tyrosine kinases = assay: K-score (Kinase Activity Ranking) of cells after pervanadate treatment, LC-MS/MS phosphoproteomics; format: cell-based; settings: 1 mM sodium pervanadate, 30 min; lysates mixed with untreated lysates
Protocol: Technical replicates were averaged and peak areas for each phosphopeptide ion were then normalized to the sum of peptide intensities for each sample. […] Kinase Activity Ranking (KAR) was calculated for kinase K using the equation below (where m=the number of phosphorylation sites in the dataset matched to kinase K; α=the normalized intensity of the phosphorylation site i; l=the total number of phosphorylation sites in the dataset regardless of any kinase-substrate association; β=the normalized intensity of the phosphorylation site j; t=the total number of known target phosphorylation sites in the PhosphoSitePlus database for kinase K). […]
P31/Fuj cells were exposed to 1 mM sodium pervanadate or left untreated during 30 min (Sodium pervanadate was prepared by mixing 30% H2O2 and 100 mM Na3VO4 pH 8.0 at 1:100 ratio during 15 min). […] After homogenization and protein quantification, treated and untreated cell lysates were mixed to a final protein concentration of 1.0 μg·μL^−1. […]
We first investigated the reproducibility and quantitative nature of Kinase Activity Ranking (KAR, which produces K-scores) as a measure of net kinase activity. […] To test the reproducibility of the analysis, we performed this experiment on three independent occasions and each was analyzed in analytical triplicate. […]

| Compound | Ranking of the kinase inhibitors based on their SCs (sensitivity coefficients) [1] | Number of cases sensitive to this inhibitor only (primary AML cells) | other results |
| --- | --- | --- | --- |
| Cc1ncc(-c2ccnc(Nc3ccc(S(C)(=O)=O)cc3)n2)n1C(C)C [CDK2i, AZD5438] | ranked the highest |  |  |
| O=C(O)c1ccc2c(c1)nc(Nc1cccc(Cl)c1)c1ccncc12 [CK2i, CX4945] |  | Five |  |
| CC(=O)Nc1cccc(-n2c(=O)n(C3CC3)c(=O)c3c(Nc4ccc(I)cc4F)n(C)c(=O)c(C)c32)c1 [MEK1i, GSK1120212] |  | three |  |
| Cc1nc(Nc2[nH]nc3c2CN(C(=O)N[C@H](CN(C)C)c2ccccc2)C3(C)C)c2sccc2n1 [PAKi, PF03758309] | ranked the highest |  |  |
| CN(C)CCCn1cc(C2=C(c3c[nH]c4ccccc34)C(=O)NC2=O)c2ccccc21 [PKCαi, GF109203X] |  |  | Inhibition of CDK2 (CDK2): high potency |
| sodium pervanadate [pV] |  |  | Change of the K-Score of tyrosine kinases (tyrosine kinases): increase |
